Data as given in patent US6459001B1 (Aventis Pharma S.A., priority 1997, dated 2002).

Legend:
[1] = test system: bone resorption (skullcaps of new-born mice); assay: Test of mouse calvarium: bone resorption by release of 45Ca from skullcaps of new-born mice, ex-vivo; settings: Mus musculus, inhibition of bone resorption (45Ca release) in half-calvaria, 48 hours contact, read-out: Mouse cavarium % inhibition at 10 μM
From the text: 2—Test of Mouse Calvarium
Injection of a tracer dose of ^45Ca (CaCl2) to gestating female mice in order to study bone resorption by measuring the release of ^45Ca from the skullcaps of new-born mice.
Determination of the activity of a molecule on bone resorption, ex-vivo study.
Vehicle: DMSO, H2O/BSA (0.1%)
Dose: Variable ([…] in screening).
Echistatin (ref. H-9010-BACHEM)
^45Ca in the form of an aqueous solution of CaCl2—ref. CES3 AMERSHAM or NEZ-013 NEN.
Vehicle: Physiological serum
Dose: 25 μCi/mouse/0.4 ml
CMRL 1066 with phenol red (ref. 041-01535 M/GIBCO) supplemented by 0.1% BSA and penicillin/streptomycin.
1) Injection of ^45Ca to Gestating Mice (OF1, Strain: Swiss)
a) Preparation of the Labelled Solution:
190 μl of the mother solution of calcium at 2 mci/ml is added to 6 ml of physiological serum.
On the 17th day of gestation the mice receive 400 μl of this solution by intravenous route, that is 25 μCi/mouse.
2) Removal of the Tissue (Skullcap (Calvarium))
Six days after their birth the new-born mice are decapitated, then the head is recovered, and the skin is incised from the nape to the front. The skullcap is removed by cutting it out with scissors, and using a punch two exactly identical half-calvaria (one on the left and one on the right) are cut from the parietal bones. One will serve as the control, the other will be used to test the product to be studied.
Each half calvarium is placed in a well of a 24-well plate, containing 1 ml of medium, on a 100 μm polyethylene and nylex support, in order to avoid all contact with the bottom of the well.
After 24 hours, the polyethylene supports carrying the calvaria are transferred into new 24-well plates containing 1 ml of fresh medium and the products to be tested or their solvents. 200 μl of medium from the first plates is removed from each well and a first count of the radioactivity is carried out (value A).
This change of medium allows all the mechanical stress associated with the removal to be eliminated.
48 hours after putting the tissues in contact with the studied products, 200 μl of medium is removed from each well and counted (value B), so as to determine the quantity of ^45Ca released from the medium during the so-called resorption phase.
The calvarium is then completely demineralized in 1 ml of 5% trichloracetic acid and after digestion, 200 μl is also removed and counted so as to determine the quantity of calcium remaining in the bone (value C). Expression of the results
A % of bone resorption is calculated for each half-calvarium (each well) in the following manner:
% bone resorption=dpm B/dpm (A+B+C)×100
The sum of dpm A+B+C represents the quantity of ^45Ca incorporated in each bone part on the day of removal.
In order to measure the effect of a product, the ratio of the percentage of bone resorption of the treated well and of the corresponding control well is calculated for each point. The value found called the resorption index is comprised between 0 and 1 if the product inhibits bone resorption and is >1 if the product potentializes it. The average of the 6 indices (since there are 6 points/group) of each product is then calculated which gives one index/product. If this index is subtracted from the value 1, the inhibitory power of the product is obtained, which can be expressed as a percentage.
Furthermore a statistical test (Student T-test) is carried out by comparing point/point the individual resorption indices.

[2] = biological target: human αvβ3 receptor (Homo sapiens, UniProt P05106+P06756); assay: Displacement of the binding Vitronectin/Vitronectin receptor (αvβ3), competition test; settings: human vitronectin coated plates, 3 hours at ambient temperature, read-out: Competition test Vn/VR (αvβ3) binding IC50 en
Description: 1—Study of the Products of the Invention on the Displacement of the Binding: Vitronectin/Vitronectin Receptor (αvβ3) […]
MaxiSorp 96-well plates are coated overnight at 4° C., with 100 μl of human Vitronectin (cf Yatohgo et al. Cell., Structure and fraction 13: 281-292 (1988)) at 2 μg/ml, (Dilution in coating buffer).
The next day, the wells are emptied and the ligands (Vitronectin) are then fixed (see fixing buffer) for one hour at ambient temperature under gentle agitation.
The wells are washed six times (see washing buffer), then the following are added to each well and in this order:
40 μl of incubation buffer, 10 μl of the dilution of the product to be tested, (the products are diluted in a 50/50 mixture of DMSO-H2O) 50 μl of human αvβ3 receptor (cf Pytela et al. Methods Enzymol (1987) 144:475) (dilution in incubation buffer, to be adapted according to the receptor batch and according to the ligand).
The ligand, the human αvβ3 receptor and the products to be studied are incubated for 3 hours at ambient temperature under gentle agitation.
The wells are again washed six times, then incubated for 2 hours at ambient temperature under gentle agitation, in the presence of 100 μl of anti-receptor, 4B12-HRP antibody coupled to a peroxidase (the 4B12-HRP antibody is diluted in an incubation buffer. The dilution is to be adapted according to the receptor batch).
This kit contains a bottle A of substrate (3,3′,5,5′-tetramethylbenzidine at 0.4 g/l) and a bottle B (H2O2 at 0.02% in a citrate/citric acid buffer). Extemporaneously, a volume of A is mixed with a volume of B, then the reaction mixture is distributed at a rate of 100 μl/well. The enzymatic reaction develops over […] for Vitronectin/αvβ3, then its development is stopped by the addition of 100 μl of 1M phosphoric acid. The optical density is measured at 450 nm. […]
coating buffer: Carbonate 0.05 M, NaOH pH 9.6 fixing buffer: PBS containing 0.5% BSA (pH 7.4) washing buffer: PBS containing 0.05% Tween 20 (pH 7.4)
Expression of the Results:
The following curve is traced: the percentage of binding of the human vitronectin as a function of the logarithm of the concentration of each product tested.
For each product the IC50 is determined according to the following formula:
BO=Maximum binding in the absence of any product
Bmin=Minimum binding in the presence of the highest concentration of product.

Row | SMILES | IC50 [2] | inhibition at 10 µM [1]
1 | COc1c(OCCCCC(=O)O)cc2c(c1OC)C1=C(CCC1)C(=NNC1=NCCN1)CC2 [EX. 6, 5-(9,10-dimethoxy-1,2,3,4,5,6-hexahydro-4-(4,5-dihydro-1H-imidazolin-2-yl)hydrazono)-8-benz(e)azulenyl)oxy)-pentanoic Acid] | 110 nM | 7.5%
2 | COc1c(OCC(=O)C(C)(C)CC(=O)O)cc2c(c1OC)C1=C(CCC1)C(=NNC1=NCCN1)CC2 [EX. 10, 5-(4((4,5-Dihydro-1H-imidazolin-2-yl)hydrazono)-9,10-dimethoxy-1,2,3,4,5,6-hexahydro-S-benz(e)azulenyl)oxy)-3,3-dimethyl-4-oxo-pentanoic Acid] | 800 nM | 8%
3 | COc1c(OCCCC(=O)O)cc2c(c1OC)C1=C(CCC1)C(=NNC1=NCCCN1)CC2 [EX. 12, 4-((9,10-Dimethoxy-4-((1,4,5,6-tetrahydro-2-pyrimidinyl)hydrazono)-1,2,3,4,5,6-hexahydro-8-benz(e)-azulenyl)oxy)-butanoic Acid] | 350 nM | 12%
4 | COc1c(OCCC(=O)O)cc2c(c1OC)C1=C(CCC1)C(=NNC1=NCCN1)CC2 [EX. 14, 3-(4((4,5-Dihydro-1H-imidazolin-2-yl)hydrazono)-9,10-dimethoxy-1,2,3,4,5,6-hexahydro-8-benz(e)azulenyl)oxy)-propanoic Acid] | 750 nM | 14%

The next compounds have a lower IC50 [2] than those just listed; values first:

Row | IC50 [2] | SMILES | inhibition at 10 µM [1]
5 | 55 nM | COc1c(OCCC(NC(=O)OCc2ccccc2)C(=O)O)cc2c(c1OC)C1=C(CCC1)C(=NNC1=NCCCCN1)CC2 (racemic) [EX. 31, O-[9,10-Dimethoxy1,2,3,4,5,6-hexahydro4-[(4,5,6,7-tetrahydro1H-1,3-diazepin-2-yl)hydrazono]8-benz(e)azulenyl]N-[(phenylmethoxy)carbonyl]DL-homoserine] | 20%
6 | 50 nM | COc1c(OCCCC(=O)O)cc2c(c1OC)C1=C(CCC1)C(=NNC1=NCCN1)CC2 [EX. 11, 4-(4((4,5-Dihydro-1H-imidazolin-2-yl)hydrazono)-9,10-dimethoxy-1,2,3,4,5,6-hexahydro-8-benz(e)azulenyl)oxy)-butanoic Acid] | 7%
7 | 79 nM | O=C(O)CCCOc1ccc2c(c1)C1=C(CCC1)C(=NNC1=NCCN1)CC2 [EX. 20, 4-((4((4,5-Dihydro-1H-imidazol-2-yl)hydrazono)-1,2,3,4,5,6-hexahydro-9-benz(e)azulenyl)oxy)-butanoic Acid] | 11%
